Reference: patent publication US5858975A, “Oxyntomodulin peptide having cardiotonic activity and insulin release-bromating activity” (Kyowa Hakko Kogyo Co., Ltd., priority 1994, dated 1999)

Experiments:
[1] = test system: eel atrium; assay: Effect of OXM in eel atrium (isolated atrium, tension transducer); conditions: isolated eel atrium in Ringer's solution, varying OXM concentration
Protocol: Test Example 1 Effect of OXM in Eel Atrium
An atrium was taken out of an eel, and one end of said atrium was fixed to the bottom of syringe filled with 1.5 ml of Ringer's solution in which was introduced a mixed gas of oxygen and carbon dioxide (95:5), while the other end thereof was connected to a tension transducer (NEC) via a silk thread. 15 μl of an aqueous solution of OXM as diluted with distilled water to have a varying concentration was added to said Ringer's solution, whereupon the tension to be generated by the atrial contraction was measured through the tension transducer. OXM used herein was the product as produced in Example 2. During this measurement, the atrial rate was also counted.

[2] = test system: plasma insulin concentration; assay: Effect of OXM on plasma insulin concentration of anesthetized rat; type: in vivo; conditions: anesthetized fasted male SD rats, cumulative administration via jugular vein, blood 5 minutes after each dose; FIG. 3
Protocol: Test Example 2 Effect of OXM on Plasma Insulin Concentration of Anesthetized Rat
Male SD rats (370 to 450 g) were bred with no feed for from 15 to 20 hours, and then Na pentobarbital (50 mg/kg) was intra-abdominally administered thereto. A blood-collecting cannula was inserted into the carotid artery of each rat. A dosed cannula was inserted into the jugular vein of each rat. About 600 μl of blood was collected from each rat before the administration of a test chemical, and 5 minutes after each administration of a varying dose of the said test chemical. OXM obtained in Example 2 was added to physiological saline solution to adjust concentration of 1 mg/ml. The said OXM solution was diluted with a physiological saline solution, the thus-diluted solution was accumulatively administered to each rat. The dose of the solution was 1 ml/kg. The collected blood was centrifuged, and its insulin concentration was measured according to the Insulin-EIA Test (Wako Pure Chemicals).

With “H-HSQGTFTNDYSKYLETRRAQDFVQWLMNSKRSGGPT-OH [OXM]” the “atrial systole (atrial tension)” value ([1]; FIG. 1) was “dose-dependently increases”, the atrial rate ([1]; FIG. 2) was “dose-dependently increases” and the “dose at which plasma insulin concentration is increased” value [2] was no less than 0.01 mg/kg.
